From US11299543B2, “Use of an anti-PD-1 antibody in combination with an anti-CD30 antibody in cancer treatment” (Bristol-Myers Squibb Company, priority 2016, dated 2022)
Entries after “also recorded” stand apart in the source; their conditions may differ. *1 amine or outer side, *2 acyl side, *3 side chain or, on linkers, in order; H or OH if unused. Where a SMILES comes first, the peptide text is derived from it. [ ]: non-standard residue; d: D form. The star is where a group is joined. Dolaproine = CO[C@@H]([C@@H]1CCCN1)[C@@H](C)C(=O)O; Hexanoyl(6-maleimido) = O=C1C=CC(=O)N1CCCCCC(=O)*; Dil = CC[C@H](C)[C@H](NC)[C@@H](CC(=O)O)OC; PABC = O=C(OCc1ccc(N[*:1])cc1)[*:2]; X1 = C[C@@H](N*)[C@@H](O)c1ccccc1; Cit = NC(=O)NCCC[C@H](N)C(=O)O; NMeV = CN[C@H](C(=O)O)C(C)C

How the values were obtained:
[1] = test system: peripheral blood T cell subsets; assay: phase 1/2 study NCT02572167, peripheral blood immunophenotyping; type: in vivo, human
Text: FIGS. 7A-7C show peripheral blood immunophenotyping. T helper subsets, such as Tregs, (FIG. 7A), activated CD4^+ T cells (FIG. 7B), and proliferating CD4^+ T cells (FIG. 7C), which were reduced after single agent BV dosing, expanded after BV and nivolumab combination dosing.
(§1) A phase 1/2 study (NCT02572167) is ongoing to assess the safety profile and antitumor activity of BV administered in combination with nivolumab in patients with relapsed or refractory Hodgkin lymphoma (HL). Patients will be treated for up to four 21-day cycles with BV 1.8 mg/kg and nivolumab 3 mg/kg. Patients will be administered 1.8 mg/kg BV on Cycle 1 Day 1, and 3 mg/kg nivolumab on Cycle 1 Day 8. For cycles 2 through 4, BV and nivolumab will be administered on Day 1 of each cycle at the same doses, e.g., 1.8 mg/kg BV and 3 mg/kg nivolumab. Both BV and nivolumab will be administered by IV injection. After completion of the Cycle 4 response assessment (EOT), patients will be eligible to undergo ASCT. Responses were assessed using the 2014 Lugano classification (Cheson et al., J Clin Oncol 2014; 32(27):3059-68).

PD-1 = molecular target: T1, PD-1 (Homo sapiens, UniProt Q15116); details: 15 subjects, 0.3 mg/kg to 10 mg/kg nivolumab, across all doses; cited from earlier work
T1 construct: Receptor-occupancy data from 15 subjects who received 0.3 mg/kg to 10 mg/kg dosing with nivolumab indicate that PD-1 occupancy appears to be dose-independent; host or cells: endogenous receptor in dosed subjects
T1 sequence (Q15116 25-288): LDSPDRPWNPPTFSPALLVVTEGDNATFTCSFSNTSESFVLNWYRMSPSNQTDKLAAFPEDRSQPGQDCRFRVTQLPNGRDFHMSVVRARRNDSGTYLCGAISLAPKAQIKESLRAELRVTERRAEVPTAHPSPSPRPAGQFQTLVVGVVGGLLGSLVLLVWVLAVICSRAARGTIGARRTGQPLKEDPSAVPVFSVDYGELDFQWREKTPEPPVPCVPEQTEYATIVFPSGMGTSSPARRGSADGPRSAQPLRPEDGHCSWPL

[2] = monotherapy, every two weeks; MTD not reached; cited from earlier work
CD30^+ cell lines = details: in vitro; cited from earlier work
[3] = test system: xenograft models of Hodgkin disease; details: SCID mouse xenograft; cited from earlier work
wild-type A20 cells [4] = assay: immunization with drug-killed A20^hcD30 cells, then wild-type A20 challenge; type: in vivo, Balb/c mice; details: mice immunized with drug-killed A20^hcD30 cells; for tumor growth: 5×10^6 wild-type A20 cells s.c.
Experimental: A20 mouse lymphoma cells were transfected with plasmid constructs encoding human TNFRSF8 (NM_001243.4) and sgRNA/Cas9 for control under the endogenous promoter of murine Tnfrsf8. Fluorescence activated cell sorting (FACS) yielded a clonal population of A20 cells that stably expressed human CD30, to be referenced as A20^hcD30, in order to be susceptible to brentuximab vedotin treatment.
A20^hcD30 cells were cultured in RPMI 1640 with 10% FBS, 10 mM HEPES, 1 mM sodium pyruvate, penicillin (100 U/ml), and streptomycin (100 μg/ml). A20^hcD30 cells were treated with 1 μg/ml BV or 100 nM mc-vc-MMAE for 4 days. In order to prepare dying cells for immunization, treated A20^hcD30 cells were overlaid atop Histopaque, and centrifuged at 2000 g for 30 minutes. Dead and dying cells were pelleted underneath the Histopaque layer, and viability was assessed to be <20% live cells by trypan blue exclusion. Flash-frozen A20^hcD30 cells were prepared by submerging cells in liquid nitrogen for 10 seconds, followed by immersion in 37° C. water until completely thawed. The liquid nitrogen freeze-thaw process was repeated 5 times. Dead and dying A20^hcD30 cells were resuspended in PBS and 2×10^6 cells were injected into the peritoneum of immune-competent Balb/c mice. 7 days later, mice received a second immunization with dead and dying cells prepared in the same manner.
14 days after initial immunization, mice were subcutaneously implanted with 5×10^6 wild-type A20 cells and monitored for tumor growth. […] As these effects occurred in the absence of any administered therapeutic, the presence of cells killed by BV or MMAE were sufficient to generate long-lasting protective immune memory against subsequent A20 lymphoma challenge.

wild-type A20 cells [5] = assay: immunization with drug-killed A20^hcD30 cells plus anti-PD-1, A20 challenge; type: in vivo, Balb/c mice; details: anti-PD-1 1 mg/kg i.v. days 6, 9, 14, 17
Experimental: Balb/c mice were immunized with BV- or MMAE-killed A20^hcD30 cells as described above. 14 days after initial immunization, mice were subcutaneously implanted with 5×10^6 wild-type A20 cells. Anti-murine PD-1 (1 mg/kg, BioLegend) was administered intravenously on days 6, 9, 14, and 17 after A20 tumor challenge.

TARC, IP10, IL-18, IFNγ = assay: phase 1/2 study NCT02572167, serum cytokine and chemokine levels; type: in vivo, human
Experimental: FIGS. 6A-6D show priming of the immune system of patients treated with brentuximab vedotin (BV) in combination with nivolumab.
as §1

wild-type A20 cells [6] = assay: T cell transfer from immunized mice into A20 tumor-bearing NSG mice; type: in vivo
Experimental: Immune-competent Balb/c mice were immunized with BV-killed or flash-frozen-killed A20^hcD30 cells as previously described. 16 weeks after initial immunization, spleens were harvested from immunized mice or naïve Balb/c mice, and manually homogenized. Splenic homogenates were combined from 4 mice per immunization, and CD3^+ T cells were isolated using EasySep Mouse T cell Enrichment Kit (Stem Cell Technologies). 1×10^6 CD3+ T cells were administered intravenously into A20 tumor-bearing mice.
4×10^6 wild-type A20 cells were subcutaneously implanted into immunodeficient NOD/SCID/γ-chain-deficient (NSG) mice. 5 days after implant, mice harboring tumors˜100 mm^3 were randomized, and received 1×10^6T cells from mice as described above.

LCL tumors [7] = assay: T cell and NK cell infiltration into autologous LCL tumors, humanized mouse model; type: in vivo, NSG mice; details: single suboptimal dose 1 mg/kg i.p., autologous PBMC transferred
Experimental: Epstein Barr virus (EBV) transformed lymphoblastoid cell Lines (LCL) were implanted subcutaneously into NSG mice. When LCL tumor volumes reached 250 mm^3, mice received a single suboptimal dose of BV or control hIgG-MMAE (1 mg/kg, i.p). Three days following dosing, 2.0×10^6 autologous peripheral blood mononuclear cells (PBMC) were adoptively transferred to mice via tail vein injection. Eleven days following transfer of PBMC, tumors were harvested, weighed, and manually dissociated through a 70 μm cell strainer. Following centrifugation, individual tumor cell pellets were resuspended in 4 ml of RPMI+10% FCS, and 200 ul of the cell suspension was used for staining and analysis by flow cytometry (FACS). Tumor cell suspensions were stained with Zombie Aqua Viability Dye (Biolegend) followed by staining with fluorescently labeled antibodies targeting human CD19, CD2, CD8, CD4, CD56, human CD45, PD-L1, PD-1, and murine CD45.1 (1:50 dilution, Biolegend) in staining buffer (SB: PBS, 2% FCS, 1% NRS, 0.05% NaN3) at 4° C. for 30 minutes. Cells were washed and resuspended in 120 μl of SB for plate-based FACS using an Attune NXT flow cytometer. All events were collected from 80 μl of sample, and FACS-measured cell concentrations were used to calculate numbers of infiltrating immune cells. CD8^+ T cells were identified as viability dye^neg, hCD45^+, mCD45.1^−, CD2^+, CD8^+ cells. […]

LCL tumors [8] = assay: immune-mediated tumor clearance in the humanized LCL tumor model; type: in vivo, NSG mice
Experimental: Epstein Barr virus (EBV) transformed lymphoblastoid cell lines (LCL) were implanted subcutaneously into NSG mice. When LCL tumors averaged 250 mm^3, mice received a single suboptimal dose of BV or control hIgG-MMAE (1 mg/kg, i.p). Three days following dosing, 2×10^6 autologous PBMC were adoptively transferred to mice via tail vein injection. Mice received two doses of nivolumab (10 mg/kg, i.p.) 2 and 7 days after adoptive transfer of PBMC. […] The significance of these differences is reflected in a comparison of mean tumor volumes at day 50, during active tumor clearance (FIG. 15B). Taken together, results obtained from this humanized model support the conclusion that in addition to direct tumor cell killing, BV drives an inflammatory response that enhances immune-mediated cellular cytotoxicity and pairs well with nivolumab.

[9] = test system: CD30+ relapsed, refractory DLBCL; details: patients treated with BV; cited from earlier work
[10] = test system: CD30+ relapsed, refractory peripheral T-cell lymphoma (PTCL); details: patients treated with BV; cited from earlier work
[11] = test system: CD30+ cutaneous T-cell lymphoma (CTCL); details: patients treated with BV; cited from earlier work

nivolumab
T cells ([1]; Cycle 1, one week after nivolumab dosing (2 weeks after BV dosing)): robust expansion | percentage of CD4+ Th1 cells compared to baseline ([1]; most patients (5 of 6, 83%)): no significant change | mean occupancy rate (PD-1) (PD-1): 85% | mean plateau occupancy (PD-1) (PD-1): 72% | maximum tolerated dose (MTD) [2]: > 10 mg/kg

cAC10: chimeric IgG1 monoclonal antibody that specifically binds CD30
growth of CD30+ cell lines (CD30^+ cell lines): induces growth arrest | antitumor activity [3]: pronounced antitumor activity

CC[C@H](C)[C@@H]([C@@H](CC(=O)N1CCC[C@H]1[C@H](OC)[C@@H](C)C(=O)N[C@H](C)[C@@H](O)c1ccccc1)OC)N(C)C(=O)[C@@H](NC(=O)[C@H](C(C)C)N(C)C(=O)OCc1ccc(NC(=O)[C@H](CCCNC(N)=O)NC(=O)[C@@H](NC(=O)CCCCCN2C(=O)C=CC2=O)C(C)C)cc1)C(C)C [mc-vc-MMAE] ({Hexanoyl(6-maleimido)}-V[Cit][PABC][NMeV]V[Dil][Dolaproine]-X1)
survival of tumor-bearing mice (wild-type A20 cells [4]): increased survival | tumor growth (wild-type A20 cells [4]): delayed tumor growth | protective anti-tumor immunity (wild-type A20 cells [5]): conferred protective anti-tumor immunity

BV: CD30-directed antibody-drug conjugate: chimeric anti-CD30 antibody cAC10, MMAE and a protease-cleavable linker
pro-inflammatory cytokine and chemokine levels (TARC, IP10, IL-18, IFNγ; after BV dosing, following concurrent BV and nivolumab): increase | Pro-inflammatory cytokine IL-18 levels (TARC, IP10, IL-18, IFNγ; after C1D1 BV dosing, with BV and nivolumab dosing): significantly higher | T-cell chemokine IP10 levels (TARC, IP10, IL-18, IFNγ; after C1D1 BV, following C1D8 nivolumab dosing): significantly higher | Serum TARC levels (TARC, IP10, IL-18, IFNγ; compared to baseline): significantly lower | percentage of CD4+ T regulatory (Treg) cells ([1]; Cycle 1 Day 8, preliminary): decrease | proliferating CD8+ T cells ([1]; Cycle 1 Day 8, preliminary): no effect | T helper subsets, such as Tregs ([1]; peripheral blood): initial reduction; also recorded: reduced | activated CD4+ T cells ([1]; peripheral blood): initial reduction; also recorded: reduced | proliferating CD4+ T cells ([1]; peripheral blood): initial reduction; also recorded: reduced | survival of tumor-bearing mice (wild-type A20 cells [4]): increased survival | tumor growth (wild-type A20 cells [4]): delayed tumor growth | tumor growth (wild-type A20 cells [6]; NSG mice given 1×10^6 T cells from mice immunized with BV-killed cells): slowed tumor growth | CD8 T cells within the tumor (wild-type A20 cells [6]; NSG mice given T cells from mice immunized with BV-killed cells): increased CD8 T cells within the tumor | protective anti-tumor immunity (wild-type A20 cells [5]): conferred protective anti-tumor immunity | intratumoral accumulation of human cytotoxic cells (LCL tumors [7]): enhanced intratumoral accumulation of human cytotoxic cells | tumor rejection (LCL tumors [8]; suboptimal dose 1 mg/kg i.p. without the addition of PBMC): did not reject tumors | immune-mediated tumor clearance (LCL tumors [8]; with autologous PBMC, BV 1 mg/kg i.p., nivolumab 10 mg/kg i.p.): enhanced immune-mediated tumor clearance | ORR [9]: 44% | ORR [10]: 41% | ORR [11]: 73%
